Experimental data: US10584116B2, “Heterocyclic sulfonamide derivative and medicine containing same” (EA Pharma Co., Ltd., priority 2016, dated 2020)

Experiments:
[1] = molecular target: TRPA1 channel (Rattus norvegicus (Rat), UniProt Q6RI86); test: AITC-induced rat blood flow evaluation test; assay type: in vivo; conditions: for rat blood flow model (% inh.): oral, 60 min before AITC (1%) application to ear, male SD rats
Description: AITC-Induced Rat Blood Flow Evaluation Test
To evaluate the effectiveness of the test substance in vivo, allylisothiocyanate (AITC)-induced blood flow evaluation test was performed using rat.
AITC is a selective agonist of the TRPA1 channel, and causes an increase in the peripheral blood flow through TRPA1 activation when applied to animal. Therefore, the intensity of the TRPA1 antagonist action of the test substance in the living body can be evaluated by measuring the increase in the peripheral blood flow after AITC application.
1. Administration of Test Substance to Animal
As the animal, 9-11-week-old male SD rats were used. A test substance was orally administered 60 min before AITC application and evaluated. On the previous day, the blood flow was measured when vehicle was administered to the same individual.
2. Evaluation of AITC-Induced Blood Flow
Under isoflurane anesthesia, the rats were placed in a prone position and a laser was irradiated with a probe of a laser Doppler flowmeter (OMEGA FLOW FLO-N1 neuro science, inc) at a distance of 1 cm from the ear of the rat, and the blood flow was measured, which was recorded using Power lab. After confirmation of stable blood flow, 15 μL of AITC (1%) solution was applied to be spread on the ear of the rat and the blood flow was measured for 20 min.
3. Calculatuin of Inhibitory Rate
Mean blood flow for 10 seconds at each analysis time point (1, 5, 10, 15, 20 min) was calculated, and the amount of change from the blood flow before AITC application was calculated as AUC (Area under the curve). AUC (% of baseline) was determined by normalizing the value obtained by (mean of AUC after test substance administration/mean of AUC after vehicle administration to the same individual)×100 with the ratio of AUC obtained by vehicle administration for the both days. The inhibition ratio was determined by 100−AUC (% of baseline).

[2] = molecular target: human TRPA1 (Homo sapiens (Human), UniProt O75762); test: Measurement of TRPA1 antagonist activity (intracellular calcium increase induced by allylisothiocyanate in 293T cells transfected with human TRPA1); assay type: cell-based; conditions: 293T cells expressing human TRPA1, allylisothiocyanate stimulation, FLIPR Calcium4 fluorescence; read-out: hTRPA1 IC50
Description: Measurement of TRPA1 Antagonist Activity
Human TRPA1 Expression Plasmid
Using cDNA encoding human TRPA1 (GenBank accession No. NM_007332) (manufactured by Kazusa DNA Research Institute, item No. FHC07217) as a template, primer 1 (SEQ ID NO: 1) and primer 2 (SEQ ID NO: 2), PCR by PfuUltra High-Fidelity DNA Polymerase (Stratagene) was performed, and full-length human TRPA1 gene was amplified.
A recognition site (underlined) of restriction enzyme HindIII was added to the 5′ end of human TRPA1 gene, and XbaI site (underlined) was added to the 3′ end of human TRPA1 gene, and GTT of the template sequence was changed to termination codon TAG (bold). The obtained double stranded DNA was enzyme-digested with HindIII and XbaI, and introduced into a multicloning site of expression plasmid pcDNA3.1/zeo(+) (manufactured by Invitrogen) to give a human TRPA1 expression plasmid.
Human embryonic kidney-derived 293T cells were cultured in Dulbecco's Modified Eagle Medium containing 10% fetal bovine serum, 10 unit penicillin, and 10 μg streptomycin. One day before assay, 3×10^6 of 293T cells were plated on a petri dish having a diameter of 10 cm, and cultured in a CO2 incubator for 24 hr. OPTI-MEM I Reduced Serum Media (Invitrogen) (600 μL), Mirus TransIT-293 (Mirus Bio) (18 μL), and human TRPA1 expression plasmid (6 μg) were mixed, the total amount of the mixture was added to the cells on the petri dish to allow for gene transfer. The cells were recovered about for 8 hr later, plated on a poly-D-lysine coated 384 well black/clear bottom plate at 12,000 cells/well, and cultured overnight.
Measurement of Intracellular Calcium Increase
The medium was removed from the 384 well plate, calcium indicator (Molecular Device, trade name: FLIPR Calcium4 Assay Kit) dissolved in HBSS (Thermo Fisher Scientific) (pH 7.2) containing 20 mM HEPES was added (38 μL/well), and the cells were stained in a CO2 incubator for 1 hr. The 384 well plate was stood at room temperature for not less than 15 min, set on FDSS7000 (Hamamatsu Photonics K.K.), and a test substance solution was added at 10 μL/well. After 10 min, allylisothiocyanate solution (12 μL/well) was added, the relative fluorescence intensity was measured for 5 min after addition of the allylisothiocyanate solution.
Test Substance Preparation
Preparation of Test Substance Solution and Allylisothiocyanate Solution
A test substance solution was prepared to have a composition of HBSS (Thermo Fisher Scientific) (pH 7.2) containing 0.48% dimethyl sulfoxide, a test substance at 4.8-fold concentration of the evaluation concentration, 0.1% bovine serum albumin and 20 mM HEPES. An allylisothiocyanate solution was prepared to have a composition of HBSS (Thermo Fisher Scientific) (pH 7.2) containing 0.1% dimethyl sulfoxide, 100 μM allylisothiocyanate, 0.1% bovine serum albumin and 20 mM HEPES.
Calculation of Antagonist Activity
The activity rate of a test substance at each concentration was calculated, wherein the relative fluorescence intensity change of a well free of a test substance and containing allylisothiocyanate is 100% activity rate, and the relative fluorescence intensity change of a well free of a test substance and allylisothiocyanate is 0% activity rate. The inhibitory rate of a test substance at each concentration was calculated by subtracting the activity rate of the test substance from 100% activity rate, and the concentration of a test substance showing 50% inhibitory rate was calculated as IC50 from the sigmoid approximate curve by XLfit (idbs).

human TRPA1, sequence (O75762 whole entry): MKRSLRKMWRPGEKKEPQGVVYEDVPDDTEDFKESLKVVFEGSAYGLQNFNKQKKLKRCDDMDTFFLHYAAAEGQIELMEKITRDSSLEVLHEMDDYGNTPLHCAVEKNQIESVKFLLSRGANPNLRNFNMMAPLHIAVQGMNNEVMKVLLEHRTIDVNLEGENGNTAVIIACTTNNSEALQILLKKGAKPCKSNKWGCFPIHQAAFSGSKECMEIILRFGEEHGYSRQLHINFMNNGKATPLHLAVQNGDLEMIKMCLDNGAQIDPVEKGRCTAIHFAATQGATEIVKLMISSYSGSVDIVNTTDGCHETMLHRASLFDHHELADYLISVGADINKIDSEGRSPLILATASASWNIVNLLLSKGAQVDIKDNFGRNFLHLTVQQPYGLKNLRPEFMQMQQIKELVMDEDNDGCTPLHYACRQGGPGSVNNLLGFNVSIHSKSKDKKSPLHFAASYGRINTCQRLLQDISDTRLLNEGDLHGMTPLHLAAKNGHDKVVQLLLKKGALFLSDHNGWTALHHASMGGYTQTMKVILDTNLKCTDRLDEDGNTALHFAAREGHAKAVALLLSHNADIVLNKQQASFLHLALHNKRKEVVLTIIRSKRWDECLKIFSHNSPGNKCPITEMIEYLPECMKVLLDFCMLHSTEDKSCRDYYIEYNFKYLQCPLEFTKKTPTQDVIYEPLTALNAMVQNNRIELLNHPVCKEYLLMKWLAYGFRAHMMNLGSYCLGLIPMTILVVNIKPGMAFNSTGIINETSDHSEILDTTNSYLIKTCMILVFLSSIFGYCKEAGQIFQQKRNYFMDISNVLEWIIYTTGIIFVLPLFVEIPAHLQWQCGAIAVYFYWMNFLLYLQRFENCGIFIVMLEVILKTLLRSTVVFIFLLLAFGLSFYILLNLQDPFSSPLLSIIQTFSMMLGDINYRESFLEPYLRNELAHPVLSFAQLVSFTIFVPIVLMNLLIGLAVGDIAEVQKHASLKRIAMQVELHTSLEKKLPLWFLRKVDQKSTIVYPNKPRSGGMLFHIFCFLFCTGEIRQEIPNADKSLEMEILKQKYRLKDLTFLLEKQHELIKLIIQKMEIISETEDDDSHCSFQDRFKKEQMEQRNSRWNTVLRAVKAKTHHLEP
TRPA1 channel, sequence (Q6RI86 whole entry): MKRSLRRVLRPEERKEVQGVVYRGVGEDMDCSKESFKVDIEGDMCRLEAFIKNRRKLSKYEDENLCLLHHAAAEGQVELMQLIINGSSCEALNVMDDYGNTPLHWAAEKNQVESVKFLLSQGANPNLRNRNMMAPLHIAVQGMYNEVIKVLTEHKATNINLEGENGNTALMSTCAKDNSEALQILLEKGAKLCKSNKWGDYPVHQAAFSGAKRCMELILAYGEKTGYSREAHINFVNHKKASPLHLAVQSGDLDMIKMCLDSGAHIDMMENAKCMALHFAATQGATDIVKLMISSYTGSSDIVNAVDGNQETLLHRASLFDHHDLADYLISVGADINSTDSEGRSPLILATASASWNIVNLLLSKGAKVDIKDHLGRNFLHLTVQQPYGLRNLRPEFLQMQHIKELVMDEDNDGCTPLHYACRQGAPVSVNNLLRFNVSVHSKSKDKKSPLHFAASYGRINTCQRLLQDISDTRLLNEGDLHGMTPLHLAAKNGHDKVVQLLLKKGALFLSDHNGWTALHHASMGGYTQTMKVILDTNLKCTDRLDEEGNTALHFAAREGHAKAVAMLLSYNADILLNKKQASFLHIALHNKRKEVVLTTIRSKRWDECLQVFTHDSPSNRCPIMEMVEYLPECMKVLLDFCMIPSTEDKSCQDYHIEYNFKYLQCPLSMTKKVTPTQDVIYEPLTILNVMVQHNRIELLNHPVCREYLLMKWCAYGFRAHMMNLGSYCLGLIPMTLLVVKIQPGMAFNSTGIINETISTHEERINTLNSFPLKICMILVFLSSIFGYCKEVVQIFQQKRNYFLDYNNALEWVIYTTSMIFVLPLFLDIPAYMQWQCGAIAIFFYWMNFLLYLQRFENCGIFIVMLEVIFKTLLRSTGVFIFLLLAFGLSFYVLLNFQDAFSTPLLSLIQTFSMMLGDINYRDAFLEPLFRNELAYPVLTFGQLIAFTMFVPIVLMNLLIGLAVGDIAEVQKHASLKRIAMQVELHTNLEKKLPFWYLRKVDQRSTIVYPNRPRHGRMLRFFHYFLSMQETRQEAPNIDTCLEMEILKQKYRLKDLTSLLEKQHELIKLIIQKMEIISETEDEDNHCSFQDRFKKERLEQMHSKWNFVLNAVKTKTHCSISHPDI

Row | Structure (SMILES) | IC50 [2] [nM] | other results
1 | CC(C)n1c(=O)c(CNC(=O)[C@@H]2CCCN2S(=O)(=O)c2cc3ccccc3o2)cn(-c2ccc(C(F)(F)F)cc2)c1=O [Example 1, (2S)-1-(benzofuran-2-ylsulfonyl)-N-[[3-isopropyl-2,4-dioxo-1-[4-(trifluoromethyl)phenyl]pyrimidin-5-yl]methyl]pyrrolidine-2-carboxamide] | 16 | AITC-induced increase in the blood flow ([1]; FIG. 1, rats, doses 0.3, 1 and 3 mg/kg): suppressed; rat blood flow model (% inh.) ([1]; dose 0.3 mg/kg): 45 % inh.; rat blood flow model (% inh.) ([1]; dose 1 mg/kg): 56 % inh.; rat blood flow model (% inh.) ([1]; dose 3 mg/kg): 58 % inh.
2 | CC(C)n1cc(CNC(=O)[C@@H]2[C@@H](O)CCN2S(=O)(=O)c2cc3cc(F)ccc3o2)cc(-c2ccc(C(F)(F)F)cc2)c1=O [Example 47, (2S,3S)-1-(5-fluorobenzofuran-2-yl)sulfonyl-3-hydroxy-N-[[1-isopropyl-6-oxo-5-[4-(trifluoromethyl)phenyl]-3-pyridyl]methyl]pyrrolidine-2-carboxamide] | 230 | –
3 | CC(C)n1cc(CNC(=O)[C@@H]2CCCN2S(=O)(=O)c2cc3cc(F)ccc3o2)cc(-c2ccc(C(F)(F)F)cn2)c1=O [Example 51, (2S)-1-(5-fluorobenzofuran-2-yl)sulfonyl-N-[[1-isopropyl-6-oxo-5-[5-(trifluoromethyl)-2-pyridyl]-3-pyridyl]methyl]pyrrolidine-2-carboxamide] | 81 | –
4 | CC(C)n1cc(-c2ccc(C(F)(F)F)cn2)cc(CNC(=O)[C@@H]2CCCN2S(=O)(=O)c2cc3ccccc3o2)c1=O [Example 42, (2S)-1-(benzofuran-2-ylsulfonyl)-N-[[1-isopropyl-2-oxo-5-[5-(trifluoromethyl)-2-pyridyl]-3-pyridyl]methyl]pyrrolidine-2-carboxamide] | 79 | –
5 | CC(C)n1c(=O)c(CNC(=O)[C@@H]2[C@@H](O)CCN2S(=O)(=O)c2cc3cc(F)ccc3o2)cn(-c2ccc(C(F)(F)F)nc2)c1=O [Example 31, (2S,3S)-1-(5-fluorobenzofuran-2-yl)sulfonyl-3-hydroxy-N-[[3-isopropyl-2,4-dioxo-1-[6-(trifluoromethyl)-3-pyridyl]pyrimidin-5-yl]methyl]pyrrolidine-2-carboxamide] | 380 | –
6 | CC(C)n1c(=O)c(CNC(=O)[C@@H]2C=CCN2S(=O)(=O)c2cc3cc(F)ccc3o2)cn(-c2ccc(C(F)(F)F)cc2)c1=O [Example 16, (2S)-1-(5-fluorobenzofuran-2-yl)sulfonyl-N-[[3-isopropyl-2,4-dioxo-1-[4-(trifluoromethyl)phenyl]-pyrimidin-5-yl]methyl]-2,5-dihydropyrrole-2-carboxamide] | 3.6 | –
7 | CC(C)n1c(=O)c(CNC(=O)C2(NS(=O)(=O)c3cc4cc(F)ccc4o3)CC2)cn(-c2ccc(C(F)(F)F)cc2)c1=O [Example 26] | 250 | –
8 | CC(C)n1c(=O)c(CNC(=O)[C@H](C)NS(=O)(=O)c2cc3cc(F)ccc3o2)cn(-c2ccc(C(F)(F)F)cc2)c1=O [Example 24] | 42 | –
9 | CC(C)n1cc(CNC(=O)[C@@H]2CCCN2S(=O)(=O)c2cc3ccccc3o2)cc(-c2ccc(C(F)(F)F)nc2)c1=O [Example 48, (2S)-1-(benzofuran-2-ylsulfonyl)-N-[[1-isopropyl-6-oxo-5-[6-(trifluoromethyl)-3-pyridyl]-3-pyridyl]methyl]pyrrolidine-2-carboxamide] | 210 | –
